Values quoted from earlier work in US20110217337A1, “BIOACTIVE AGENT FOR BONE TISSUE ENGINEERING” (UNIVERSITY OF CONNECTICUT, priority 2010, published 2011).

Assays:
cell proliferation = conditions: cited from earlier work
bone formation = conditions: via the PKA pathway; cited from earlier work
osteogenesis = conditions: via the PKA pathway; cited from earlier work
cAMP receptors = conditions: in vivo; cited from earlier work
osteoblast = conditions: cited from earlier work

CCCC(=O)Nc1ncnc2c1ncn2[C@@H]1O[C@@H]2COP(=O)(O)O[C@H]2[C@H]1OC(=O)CCC [db-cAMP, N^6,2′-O-dibutyryladenosine-3′,5′-cyclic monophosphate]
cell proliferation (cell proliferation): inhibit cell proliferation | in vivo bone formation (bone formation): enhances | in vitro osteogenesis (osteogenesis): enhances | activation of cAMP receptors (cAMP receptors): activate all cAMP receptors non-specifically

Nc1ncnc2c1nc(Br)n2[C@@H]1O[C@@H]2COP(=O)(O)O[C@H]2[C@H]1O [8-Br-cAMP]
osteoblast proliferation (osteoblast): inhibits osteoblast proliferation
